Experimental data reported in PubChem BioAssay AID1963844 (Molecular Pharmacology Branch, DTP, NCI, 2024).

Test system: 422866-222-R5-J1-PDC complex spheroid viability
Assay: Anticancer human tumor 422866-222-R5-J1-PDC patient-derived pancreatic adenocarcinoma cell line growth inhibition [POLQ]
Conditions: for IC50: curve of first compound; for viability, T/C: stronger effect = lower value
In short: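 Patient-derived tumour cells were co-cultured with HUVEC and mesenchymal stem cells as multicellular spheroids at 37 °C. They were treated with POLQ inhibitors (novobiocin, ART-558, RP6685) alone or combined with other agents. Top concentrations were at or near clinical Cmax (otherwise 10 microM; SN-38 at 1 microM), decreasing in half-log steps.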

[1] = second compound 0.0316 µM, first compound 0.0316 µM
[2] = second compound 0.0316 µM, first compound 0.1 µM
[3] = second compound 0.0316 µM, first compound 0.316 µM
[4] = second compound 0.0316 µM, first compound 1 µM
[5] = second compound 0.0316 µM, first compound 3.16 µM
[6] = second compound 0.0316 µM, first compound 10 µM
[7] = second compound 0.1 µM, first compound 0.0316 µM
[8] = second compound 0.1 µM, first compound 0.1 µM
[9] = second compound 0.1 µM, first compound 0.316 µM
[10] = second compound 0.1 µM, first compound 1 µM
[11] = second compound 0.1 µM, first compound 3.16 µM
[12] = second compound 0.1 µM, first compound 10 µM
[13] = second compound 0.316 µM, first compound 0.0316 µM
[14] = second compound 0.316 µM, first compound 0.1 µM
[15] = second compound 0.316 µM, first compound 0.316 µM
[16] = second compound 0.316 µM, first compound 1 µM
[17] = second compound 0.316 µM, first compound 3.16 µM
[18] = second compound 0.316 µM, first compound 10 µM
[19] = second compound 1 µM, first compound 0.0316 µM
[20] = second compound 1 µM, first compound 0.1 µM
[21] = second compound 1 µM, first compound 0.316 µM
[22] = second compound 1 µM, first compound 1 µM
[23] = second compound 1 µM, first compound 3.16 µM
[24] = second compound 1 µM, first compound 10 µM
[25] = second compound 3.16 µM, first compound 0.0316 µM
[26] = second compound 3.16 µM, first compound 0.1 µM
[27] = second compound 3.16 µM, first compound 0.316 µM
[28] = second compound 3.16 µM, first compound 1 µM
[29] = second compound 3.16 µM, first compound 3.16 µM
[30] = second compound 3.16 µM, first compound 10 µM
[31] = second compound 10 µM, first compound 0.0316 µM
[32] = second compound 10 µM, first compound 0.1 µM
[33] = second compound 10 µM, first compound 0.316 µM
[34] = second compound 10 µM, first compound 1 µM
[35] = second compound 10 µM, first compound 3.16 µM
[36] = second compound 10 µM, first compound 10 µM
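Note: spheroids exposed to compounds for one week before readout.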
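Throughout, for viability, T/C: percent of DMSO vehicle wells luminescence so 100% = untreated viability.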

For `C#Cc1c(F)ccc2cc(O)cc(-c3ncc4c(N5CC6CCC(C5)N6)nc(OCC56CCCN5CC(F)C6)nc4c3F)c12` (stereo unspecified) + Cc1cccc(N(C)C(=O)C2C(O)CCN2c2nc(C)cc(C(F)(F)F)c2C#N)c1, the IC50 (second compound 0.0316 µM) was 758 nM, the IC50 (second compound 0.1 µM) was 1090 nM and the IC50 (second compound 0.316 µM) was 762 nM. It also gave an IC50 (second compound 1 µM) of 712 nM, an IC50 (second compound 3.16 µM) of 480 nM and an IC50 (second compound 10 µM) of 465 nM. For the same molecule, the viability, T/C [1] was 104%, the viability, T/C [2] was 79.8% and the viability, T/C [3] was 65.2%. The viability, T/C [4] was 45.5%, the viability, T/C [5] was 33% and the viability, T/C [6] was 28.7%. The viability, T/C [7] was 92.1%, the viability, T/C [8] was 87.2% and the viability, T/C [9] was 65.7%. The viability, T/C [10] was 54.6%, the viability, T/C [11] was 33.3% and the viability, T/C [12] was 25.9%. It also gave a viability, T/C [13] of 102%, a viability, T/C [14] of 80% and a viability, T/C [15] of 67.6%. It also gave a viability, T/C [16] of 46%, a viability, T/C [17] of 29.3% and a viability, T/C [18] of 29.1%. The viability, T/C [19] was 95.8%, the viability, T/C [20] was 96.9% and the viability, T/C [21] was 68.1%. It also gave a viability, T/C [22] of 43.7%, a viability, T/C [23] of 33.5% and a viability, T/C [24] of 32%. The viability, T/C [25] was 92.8%, the viability, T/C [26] was 74.4% and the viability, T/C [27] was 57%. The viability, T/C [28] was 40.8%, the viability, T/C [29] was 30.3% and the viability, T/C [30] was 33.9%. For the same molecule, the viability, T/C [31] was 84.3%, the viability, T/C [32] was 69.2% and the viability, T/C [33] was 56.1%. For the same molecule, the viability, T/C [34] was 39.9%, the viability, T/C [35] was 32.3% and the viability, T/C [36] was 27.6%.
With `C=CC(=O)N1CCN(c2nc(=O)n(-c3c(C)ccnc3C(C)C)c3nc(-c4c(O)cccc4F)c(F)cc23)C(C)C1` (stereo unspecified) + Cc1cccc(N(C)C(=O)C2C(O)CCN2c2nc(C)cc(C(F)(F)F)c2C#N)c1 the IC50 (second compound 0.0316 µM) was < 31.6 nM, the IC50 (second compound 0.1 µM) was < 31.6 nM and the IC50 (second compound 0.316 µM) was < 31.6 nM. For the same molecule, the IC50 (second compound 1 µM) was < 31.6 nM, the IC50 (second compound 3.16 µM) was < 31.6 nM and the IC50 (second compound 10 µM) was < 31.6 nM. It also gave a viability, T/C [1] of 29.6%, a viability, T/C [2] of 26.5% and a viability, T/C [3] of 24.8%. The viability, T/C [4] was 22.2%, the viability, T/C [5] was 23.5% and the viability, T/C [6] was 27%. For the same molecule, the viability, T/C [7] was 27.8%, the viability, T/C [8] was 25.2% and the viability, T/C [9] was 25%. The viability, T/C [10] was 23.5%, the viability, T/C [11] was 21.2% and the viability, T/C [12] was 29.3%. The viability, T/C [13] was 34.9%, the viability, T/C [14] was 22.1% and the viability, T/C [15] was 25.3%. The viability, T/C [16] was 26%, the viability, T/C [17] was 22.8% and the viability, T/C [18] was 25.5%. For the same molecule, the viability, T/C [19] was 30.3%, the viability, T/C [20] was 25.7% and the viability, T/C [21] was 26.1%. It also gave a viability, T/C [22] of 21.8%, a viability, T/C [23] of 26.7% and a viability, T/C [24] of 27.4%. For the same molecule, the viability, T/C [25] was 32.3%, the viability, T/C [26] was 28.7% and the viability, T/C [27] was 31.4%. The viability, T/C [28] was 25.9%, the viability, T/C [29] was 23.7% and the viability, T/C [30] was 25.7%. It also gave a viability, T/C [31] of 35.3%, a viability, T/C [32] of 28% and a viability, T/C [33] of 25.1%. The viability, T/C [34] was 26%, the viability, T/C [35] was 32% and the viability, T/C [36] was 28.3%.
For `CC1COCCN1c1cc(C2(O)CC3CCC(C2)O3)c2cnn(-c3ccn[nH]3)c2n1` (stereo unspecified) + Cc1cccc(N(C)C(=O)C2C(O)CCN2c2nc(C)cc(C(F)(F)F)c2C#N)c1, the IC50 (second compound 0.0316 µM) was > 10000 nM, the IC50 (second compound 0.1 µM) was > 10000 nM and the IC50 (second compound 0.316 µM) was > 10000 nM. The IC50 (second compound 1 µM) was > 10000 nM, the IC50 (second compound 3.16 µM) was 31.6 nM and the IC50 (second compound 10 µM) was > 10000 nM. It also gave a viability, T/C [1] of 87.5%, a viability, T/C [2] of 42.3% and a viability, T/C [3] of 44.2%. It also gave a viability, T/C [4] of 85.3%, a viability, T/C [5] of 70.9% and a viability, T/C [6] of 73.2%. The viability, T/C [7] was 75.1%, the viability, T/C [8] was 55.5% and the viability, T/C [9] was 52.2%. The viability, T/C [10] was 79.2%, the viability, T/C [11] was 68.8% and the viability, T/C [12] was 72.2%. For the same molecule, the viability, T/C [13] was 72.5%, the viability, T/C [14] was 40.9% and the viability, T/C [15] was 52.5%. It also gave a viability, T/C [16] of 70.3%, a viability, T/C [17] of 80.7% and a viability, T/C [18] of 74.7%. It also gave a viability, T/C [19] of 77.8%, a viability, T/C [20] of 44.7% and a viability, T/C [21] of 51.3%. The viability, T/C [22] was 70.6%, the viability, T/C [23] was 71.3% and the viability, T/C [24] was 92.5%. It also gave a viability, T/C [25] of 74.8%, a viability, T/C [26] of 48.1% and a viability, T/C [27] of 41.1%. For the same molecule, the viability, T/C [28] was 95.4%, the viability, T/C [29] was 78.2% and the viability, T/C [30] was 79%. The viability, T/C [31] was 76.2%, the viability, T/C [32] was 45.2% and the viability, T/C [33] was 54.3%. It also gave a viability, T/C [34] of 85.3%, a viability, T/C [35] of 82.4% and a viability, T/C [36] of 82.6%.
